One series deals with black cutworm larvae. Put plainly: Black cutworm feeding damage on corn shoots and foliage, seed treatment vs soil granular treatment (Reference Example 1). Format: in vivo. As to conditions: for Plant Defol. 3 DAI / Plant Defol. 7 DAI / Plant Defol. 10 DAI: rating 1=no damage, 10=complete defoliation. How it is done:
This example compares the efficacy of seed treatment with lambda-cyhalothrin (CAS #91465-08-6) to soil granular treatments with tefluthrin (CAS #79538-32-2) against feeding damage by black cutworm larvae on shoots and foliage.
(§1) A lambda-cyhalothrin seed treatment formulation was prepared by diluting the WARRIOR® T insecticide (Zeneca Ag Products, Wilmington, Del.), which contains 11.4% lambda-cyhalothrin as the active ingredient, into water as a carrier. This formulation was applied for one minute at room temperature to twenty-five grams of Pioneer corn seed (Cultivar PN3394) in a rotostatic seed treater at a rate of 125 g, 250 g or 500 g active ingredient (Al) to 100 kg seed. The treated seeds were allowed to sit uncapped for four to twenty-four hours before planting.
(§2) Treated and untreated seeds (Pioneer hybrid PN3394) were planted in a soil mix consisting of Dupo silt loam, 30% Perlite, 20% coarse sand (WB-10 grade) in six groups of tubs (20 in. L×15 in. W×8 in. D). Twelve seeds were planted per tub and three tubs were planted for each treatment regimen. Soil applications of FORCE® 3GR, which contains 3% tefluthrin granule as the active ingredient, were used for two sets of tubs containing untreated seeds. The FORCE 3GR was applied either in-furrow or incorporated into a 5 inch band on the soil surface at the time of planting. The tubs were overhead irrigated until the plants were infested with black cutworm larvae.
The rate of application for the FORCE 3GR was reported in units of grams of the active ingredient per hectare (g/ha), while the rate of application of the WARRIOR T to the seeds was reported in units of grams of the active ingredient per 100 kilograms of the seeds (g/100 kg). Although the conversion of one of these units to the other will vary somewhat according to the type of seed that is being used, the size and weight of the seed, and the density of planting that is used—among other things—an approximate conversion for corn seed can be carried out as follows. Assuming a seed application rate of lambda cyhalothrin of, for example, 125 g/100 kg of seed and a planting density of 15 lbs seed/ac, about 14.7 acres can be planted with 100 kg of the seed. This is an effective application rate of about 8.5 g of lambda cyhalthrin per acre. At 2.47 ac/ha, the seed treatment level of 125 g/100 kg is approximately equivalent to a surface banding treatment at about 21 g/ha.
The corn plants were infested at 12 DAP, which corresponds to late growth stage V1 by placing two black cutworm larvae at ¾ instar on the soil surface near the base of the plant. Plants were rated 3, 7 and 10 days after infestation (DAI) for the number of cut plants, as well as damage from leaf feeding. The percent stand reduction due to plant cutting was calculated by dividing the number of cut plants into the number of plants present at infestation. The foliar feeding injury was evaluated using a rating scale of 1=no damage and 10=complete defoliation.

In series [1] the test system is corn plants (Pioneer hybrid PN3394). Put plainly: Vigor rating of corn plants before infestation (indication of phytotoxicity). As to conditions: rating 1=extremely low vigor, 10=highest. Format: in vivo. The procedure: as §1, §2
At twelve days after planting (DAP) but before infestation, the overall health of each plant was rated by looking at emergence, height and appearance. This vigor rating gives an indication of any phytotoxicity from the seed or soil treatment. A rating of 1 indicates extremely low vigor while 10 is the highest vigor rating.

The structures appear in SMILES notation.

On to `CC1(C)[C@H](C(=O)O[C@H](C#N)c2cccc(Oc3ccccc3)c2)[C@@H]1/C=C(\Cl)C(F)(F)F` [λ-cyhalothrin, [1 alpha(s), 3 alpha(z)]-cyano(3-phenoxyphenyl) methyl-3-(2-chloro-3,3,3-trifluoro-1-propenyl)-2,2-dimethylcyclopropane carboxylate], for which the “Plant Defol. 3 DAI” value with black cutworm larvae (seed treatment 125 g/100 kg) is 4.3; with black cutworm larvae (seed treatment 250 g/100 kg) it was 3.7; in the series with black cutworm larvae (seed treatment 500 g/100 kg) it was 2.0. Further, the “Plant Defol. 7 DAI” value in the series with black cutworm larvae (seed treatment 125 g/100 kg) was 5.0; in the series with black cutworm larvae (seed treatment 250 g/100 kg) it was 2.7; in the series with black cutworm larvae (seed treatment 500 g/100 kg), 2.3. Moreover, the entries for the “Plant Defol. 10 DAI” value in the series with black cutworm larvae (seed treatment 125 g/100 kg), in the series on black cutworm larvae (seed treatment 250 g/100 kg) and in the series on black cutworm larvae (seed treatment 500 g/100 kg) were 3.3, 1.7 and 1.0, respectively. Besides, the “% Stand Reduct'n 3 DAI” value with black cutworm larvae (seed treatment 250 g/100 kg) came to 3.0%; in the series with black cutworm larvae (seed treatment 500 g/100 kg) it was 0.0%. Further, the “% Stand Reduct'n 7 DAI” value in the series on black cutworm larvae (seed treatment 250 g/100 kg) turned out to be 3.0%; in the series with black cutworm larvae (seed treatment 250 g/100 kg, listed as lambda-cyhalothrin), 3%; in the series with black cutworm larvae (seed treatment 500 g/100 kg), 0.0%; with black cutworm larvae (seed treatment 500 g/100 kg, listed as lambda-cyhalothrin) it was 0%. Also, the “% Stand Reduct'n 10 DAI” value in the series with black cutworm larvae (seed treatment 250 g/100 kg) stood at 3.0%; with black cutworm larvae (seed treatment 500 g/100 kg), 0.0%. The “protection of corn plants against shoot/foliar feeding damage by black cutworm” value in the series with black cutworm larvae (seed treatment prior to planting) was “significant protection”. In addition, the “Vigor at 12 DAP” value in series [1] (seed treatment 125 g/100 kg) is 9.0; in series [1] (seed treatment 250 g/100 kg), 8.3; in series [1] (seed treatment 500 g/100 kg) it was 8.3.

For `Cc1c(F)c(F)c(COC(=O)[C@@H]2[C@H](/C=C(\Cl)C(F)(F)F)C2(C)C)c(F)c1F` (racemic) [Tefluthrin, (2,3,5,6-tetrafluoro-4-methylphenyl)-methyl-(1 alpha, 3 alpha)-(Z)-(±)-3-(2-chloro-3,3,3-trifluoro-1-propenyl)-2,2-dimethylcyclopropanecarboxylate], the “% Stand Reduct'n 3 DAI” value with black cutworm larvae (banded 30 g/ha (FORCE 3GR)) is on record as 0.0%. Besides, the “Vigor at 12 DAP” value in series [1] (banded 30 g/ha (FORCE 3GR)) is given as 8.7; in series [1] (in-furrow 30 g/ha (FORCE 3GR)), 9.0.

Values taken from patent publication US8592648B2, “Seed treatment with combinations of pyrethrins/pyrethroids and thiamethoxam” (Monsanto Technology, LLC, priority 2000, dated 2013).
